Experiments:
HDAC4 = target: T1, HDAC4 (Homo sapiens, UniProt P56524); assay: Fluorescence-based HDAC enzyme assay, recombinant HDAC4; type: biochemical; conditions: recombinant human HDAC enzyme in vitro; read-out: IC50 (μM) HD4
T1 construct: cDNAs encoding truncated versions of HDAC4, 5 and 7 encompassing their deacetylase domains; hexahistidine (N); made in house; host or cells: Sf-9 insect cells (baculovirus)
Excerpt: (§1) cDNAs of human HDAC1-8 and 11 were generated by RT-PCR reactions using primers complementary to the 5′ and 3′ coding sequence of human HDAC gene sequences in GenBank. cDNAs corresponding to the full length human HDAC1, 2, 3 and 11 were cloned into pBlueBac4.5 vector (Invitrogen). The constructs were used to generate recombinant baculoviruses using the Bac-N-Blue™ DNA according to the manufacturer's instructions (Invitrogen). The recombinant HDAC1, 2, 3, 11 proteins produced harbor a FLAG tag at their C-termini. cDNAs encoding truncated versions of HDAC4, 5 and 7 encompassing their deacetylase domains were cloned into pDEST10 as an N-terminal hexahistidine fusion protein and recombinant baculoviruses were generated using the Bac-to-Bac™ Baculovirus expression system (Invitrogen). HDAC6 and 8 were cloned as full length N-terminally His-tagged protein. All HDAC proteins were expressed in insect Sf-9 cells (Spodoptera frugiperdai) upon infection with recombinant baculovirus. HDAC1 enzyme was purified from the Q-sepharose FF column (Amersham Pharmacia Biotech, Baie d'Urfe QC, Canada) followed by an anti-FLAG immunoaffinity column (Sigma). HDAC2, 3 and 11 were purified using Flag-antibody immunoaffinity purification. HDAC4, 5, 6, 7 and 8 were purified using either Ni-NTA resin (QIAGEN Mississauga ON, Canada) or His-Select resin (Sigma) with step washes and elution with different concentrations of imidazole in Buffer containing 25 mM Tris (or NaPO4) pH 8.0, 10% glycerol and 150 mM or 500 mM NaCl.
(§2) Recombinant HDAC enzymes were incubated with diluted compounds in assay buffer (25 mM Hepes, pH 8.0, 137 mM NaCl, 1 mM MgCl2 and 2.7 mM KCl) for 10 minutes at ambient temperatures in black 96-well plate. Boc-Lys(Ac)-AMC (for HDAC1, 2, 3, 6, and 8 enzymes), which was purchased from Bachem Biosciences Inc., (King of Prussia, Philadelphia) were added into enzyme-compound mixture and incubated at 37° C. For HDAC4, 5, 7 assays, Boc-Lys(TFA)-AMC, which was synthesized in house, was used as substrate and 0.1% BSA was added to the buffer. […] Reaction time was predetermined to ensure that reaction was linear for the incubation time. Reaction was stopped by adding a freshly prepared trypsin (1 mg/ml final concentration) with 1 μM TSA (Biomol) in assay buffer. After 30 minutes, fluorescence was measured using a fluorometer (SPECTRAMAX GeminiXS, Molecular Devices, Sunnylvale, Calif.). The 50% inhibitory concentrations (IC50) for inhibitors were determined by analyzing dose-response inhibition curves.

HDAC6 = target: T2, HDAC6 (Homo sapiens, UniProt Q9UBN7); assay: Fluorescence-based HDAC enzyme assay, recombinant HDAC6; type: biochemical; conditions: recombinant human HDAC enzyme in vitro; read-out: IC50 (μM) HD6
T2 construct: HDAC6 and 8 were cloned as full length N-terminally His-tagged protein; His tag (N); made in house; host or cells: Sf-9 insect cells (baculovirus)
T2 sequence (Q9UBN7 1-1215): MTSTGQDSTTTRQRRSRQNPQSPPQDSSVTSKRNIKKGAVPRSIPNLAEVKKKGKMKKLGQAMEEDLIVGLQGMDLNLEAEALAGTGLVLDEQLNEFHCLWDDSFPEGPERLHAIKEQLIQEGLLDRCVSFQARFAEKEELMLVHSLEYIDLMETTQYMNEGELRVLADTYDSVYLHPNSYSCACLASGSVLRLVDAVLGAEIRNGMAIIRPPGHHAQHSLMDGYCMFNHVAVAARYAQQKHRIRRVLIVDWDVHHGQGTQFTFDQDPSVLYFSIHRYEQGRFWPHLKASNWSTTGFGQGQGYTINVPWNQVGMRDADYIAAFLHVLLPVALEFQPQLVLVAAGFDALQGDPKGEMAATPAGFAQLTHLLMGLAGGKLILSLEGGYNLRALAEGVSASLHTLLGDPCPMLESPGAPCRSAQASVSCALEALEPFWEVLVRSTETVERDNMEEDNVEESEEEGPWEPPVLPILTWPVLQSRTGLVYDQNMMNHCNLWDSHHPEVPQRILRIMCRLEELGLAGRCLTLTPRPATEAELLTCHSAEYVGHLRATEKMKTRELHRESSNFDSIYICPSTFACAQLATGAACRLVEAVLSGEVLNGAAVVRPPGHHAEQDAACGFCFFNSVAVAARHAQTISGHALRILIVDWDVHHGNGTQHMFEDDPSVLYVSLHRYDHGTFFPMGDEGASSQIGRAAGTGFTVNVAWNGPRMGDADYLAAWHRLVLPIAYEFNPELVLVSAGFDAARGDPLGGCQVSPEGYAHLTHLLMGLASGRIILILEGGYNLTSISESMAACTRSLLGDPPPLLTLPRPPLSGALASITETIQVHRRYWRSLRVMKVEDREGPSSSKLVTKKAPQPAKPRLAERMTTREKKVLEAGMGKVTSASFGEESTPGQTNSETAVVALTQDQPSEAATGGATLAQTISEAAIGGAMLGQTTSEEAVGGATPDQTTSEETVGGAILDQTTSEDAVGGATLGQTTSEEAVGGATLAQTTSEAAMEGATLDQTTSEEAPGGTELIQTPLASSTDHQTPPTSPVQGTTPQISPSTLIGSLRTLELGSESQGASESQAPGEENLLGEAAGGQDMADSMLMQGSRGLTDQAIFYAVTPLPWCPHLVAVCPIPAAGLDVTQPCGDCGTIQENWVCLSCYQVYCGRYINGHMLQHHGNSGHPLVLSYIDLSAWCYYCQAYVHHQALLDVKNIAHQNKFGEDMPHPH
Excerpt: as §1, §2

T1 sequence (P56524 655-1084 limits assumed): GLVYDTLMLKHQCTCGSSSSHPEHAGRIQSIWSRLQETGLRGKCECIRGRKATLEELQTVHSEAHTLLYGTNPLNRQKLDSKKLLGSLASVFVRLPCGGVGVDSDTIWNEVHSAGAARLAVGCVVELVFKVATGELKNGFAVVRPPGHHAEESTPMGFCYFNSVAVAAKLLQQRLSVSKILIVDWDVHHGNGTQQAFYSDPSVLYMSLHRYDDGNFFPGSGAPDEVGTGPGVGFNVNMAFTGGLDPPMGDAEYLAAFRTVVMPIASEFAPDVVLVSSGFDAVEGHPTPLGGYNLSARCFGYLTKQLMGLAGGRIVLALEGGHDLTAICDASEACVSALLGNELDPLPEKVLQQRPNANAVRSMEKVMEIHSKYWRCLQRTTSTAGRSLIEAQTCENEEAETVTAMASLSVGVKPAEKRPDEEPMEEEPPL

Row | IC50 (HDAC4) [µM] | IC50 (HDAC6) [µM] | SMILES
1 | > 10 | > 10 | CN1CCN(c2ccc(C(=O)Nc3cc(-c4ccncc4)ccc3N)cc2)CC1 [Compound G]
2 | > 10 | > 10 | Nc1ccc(-c2ccccc2)cc1NC(=O)c1ccc(N2CCC(N)CC2)cc1 [Compound E]
3 | > 10 | > 10 | Nc1ccccc1NC(=O)c1ccc(N2CC[C@H](Nc3cccnc3)C2)cc1 [Compound B]
4 | > 10 | > 10 | CC(C)N1CCN(c2ccc(C(=O)Nc3cc(-c4ccncc4)ccc3N)cc2)CC1 [Compound H]
5 | > 10 | > 10 | Nc1ccc(-c2ccccc2)cc1NC(=O)c1ccc(N2CC[C@H](N)C2)cc1 [Compound D]
6 | > 10 | > 10 | CN1CCN(c2ccc(C(=O)Nc3cc(-c4ccccn4)ccc3N)cc2)CC1 [Compound F]
